Data: US20160303189A1, “Applications of Recombined Ganoderma Lucidum Immunoregulation Protein in Preparing Drugs for Treating Tissue Fibrosis” (priority 2014, published 2016)

Columns and labels:
Type in all cases: in vivo
[1] = test system: model rats with liver fibrosis; test: Effects of rLZ-8 on serum ALT, AST and ALB of CCl4 model rats with liver fibrosis; conditions: Group C: glycyrrhizin (Ganlixin) 12.5 mg/kg s.c. once a day
Protocol: (§1) Experiment grouping: model group, positive drug group and the treatment group were given subcutaneous injection of 50% volume fraction carbon tetrachloride olive oil solution, twice a week, starting 8:00 in the morning on Mondays and Thursdays, lasting for 8 weeks to replicate the cirrhosis model. For the first time the dose was 0.5 ml/100 g in accordance with weights of the mice, then 0.3 ml/100 g every four days in accordance with weights of the mice. They ate and drank water freely. At the same time on Mondays changes in rats' weights were monitored and the possibility of liver failure was preliminary estimated in order to reduce the mortality rated caused by replicating the cirrhosis model.
(§2) Treating process: In the control group (group A), the model group (group B), the positive drug group (glycyrrhizin group C), the low-dose treatment group (group D), the medium-dose treatment group (group E) and the high-dose treatment group (group F), 8 weeks after the cirrhosis models were built, the rats were anesthetized with ether, blood was drawn from retinal venous plexus to test serum liver biochemical indicators; the positive drug group were given subcutaneous injection of Ganlixin solution, the injection volume was 12.5 mg/kg. The process was performed once a day, lasting for 4 weeks; for the low, medium and high rLZ-8 dose groups, the concentration of subcutaneous injections were 15 μg/kg, 30 μg/kg and […] respectively; the injections were given once a day for 4 weeks; till the end of the 12th week, the mice were denied food but not water for 18 hours and anesthetized with ether. The eyeball blood of the rats was drawn, about […] samples of blood were centrifuged to get serum and then were put into a −20° C. deep freezer to be tested for serum biochemical indexes.
In the present experiment, the rats' liver fibrosis models were replicated by CCl4: olive oil (1:1) for 8 weeks. […] Compared with the control group, the difference was obvious and was statistically significant. The effect of medium dose rLZ-8 was the best.

[2] = test system: model rats with liver fibrosis; test: Effects of rLZ-8 on body mass, liver weight and liver indexes of CCl4 model rats with liver fibrosis; conditions: 4 weeks
Protocol: as §1, §2

[3] = test system: BLM-induced pulmonary fibrosis; test: Effect of rLZ-8 on BLM-induced pulmonary fibrosis of mice, Szapiel grading; conditions: Group F: positive drug dexamethasone 4 mg/kg injected, n=12
Excerpt: Experiment groups: there were 7 groups in the experiment and 12 mice in each group. The groups were a saline group (group A), a model group (group B), a low treatment dose group (group C), a medium dose group (group D), a high dose group (group E), a positive control group (group F) and an administration group one week after modeling (group G). The process of modeling was the same as the embodiment 1.
Treating process: groups B, C, D, E, F and G all adopted low BLM dose for modeling. Group A and Group B were injected with saline for serving as contrast groups; Groups C, D and E were injected with rLZ-8 each day for treatment. Mice in these groups were weighed every 3 days and drugs were administrated according to weights of the mice. The dose for Group C was 3.84375 μg/kg, the dose for Group D was 7.6875 μg/kg, the dose for Group E was 19.21875 μg/kg, Group F were injected with positive drug dexamethasone 4 mg/kg, Group G were injected with rLZ-8 for treatment 1 week after modeling and the dose was 7.6875 μg/kg.
On the 14th day and the 21st day, 6 mice were randomly picked and killed in each group. Lungs of the mice were taken out to watch the color of the lungs, if the surface was intact or not, and the changes in the lung surface; parts of the lung tissue were paraffin sectioned and HE stained to be examined histologically; other parts were done with RT-PCR to examine the RNA level. According to histological analysis, RNA level, protein level and the change in the amount of inflammatory cells, the grades of fibrosis were decided.

[4] = test system: Dox-induced myocardial damage; test: Treatment effect of rLZ-8 on Dox-induced myocardial damage in mice; conditions: Group H: 10 mg/kg fosinopril sodium tablets, intragastric, every two days
Protocol: Experiment grouping: there were 8 experimental groups, 10 mice/per group, saline group (Group A), model group (Group B), rLZ-8 3 μg/kg (Group C), rLZ-8 6 μg/kg(Group D), rLZ-8 12 μg/kg (Group E), rLZ-8 24 μg/kg (Group F), rLZ-8 48 μg/kg (Group G) and positive control group (Group H).
Treating process: The model making process was the same as embodiment 3. The models for groups B, C, D, E, F, G and H were made with 3 mg/kg Dox, and then as control groups, Groups A and B were given intraperitoneal injection of saline once every day, and Groups C, D, E, G and H were treated with rLZ-8, intravenous injection once every 2 days. The mice were weighed every 3 days and drugs were delivered in accordance with weights. The dose for Group C was 3 μg/kg, Group D was 6 μg/kg, Group E was 12 μg/kg, Group F was 24 μg/kg, Group G was 48 μg/kg, and as the positive control group, every two days the mice in Group H were given 10 mg/kg fosinopril sodium tablets by way of intragastric administration.
Experiment records: The deaths of the mice were recorded at 9:00 and 17:00 every day and activities of the mice were closely watched. […] The myocardial tissues were made into paraffin sections and were treated with HE staining and trichrome staining to do histological examinations.
Experimental results: In order to examine myocardial fibrosis grades of the mice and myocardial fibrosis status, in the seventh week, samples were taken according to the mortality rates. […] Sample taking: the mice were killed with the right amount of anesthetic injections and hearts of the mice were isolated under sterile conditions and rinsed with cold PBS, and then blood was blotted up filter paper. The ventricles were selected and crosscut at a 1/2 section. The myocardial tissue was put into 4% paraformaldehyde solution to be fixed, then it was paraffin sectioned and HE stained. Three slices were cut from each tissue and stained under the same conditions. The myocardial tissue of the mice was Masson stained and was photographed under 20 times 40 times microscopes and statistics were recorded.

[5] = Group C: glycyrrhizin (Ganlixin solution) 12.5 mg/kg subcutaneous once a day

CC1(C)[C@@H](O[C@H]2O[C@H](C(=O)O)[C@@H](O)[C@H](O)[C@H]2O[C@@H]2O[C@H](C(=O)O)[C@@H](O)[C@H](O)[C@H]2O)CC[C@]2(C)[C@H]3C(=O)C=C4[C@@H]5C[C@@](C)(C(=O)O)CC[C@]5(C)CC[C@@]4(C)[C@]3(C)CC[C@@H]12 [glycyrrhizin]
serum ALB ([1]; Day 10): 34.8 ± 0.2 g/L
serum ALT ([1]; Day 10): 143.3 ± 0.9 U/L
serum AST ([1]; Day 10): 176.2 ± 6.1 U/L
serum ALB ([1]; Day 20): 30.0 ± 0.2 g/L
serum ALT ([1]; Day 20): 126.2 ± 1.3 U/L
serum AST ([1]; Day 20): 205.8 ± 4.2 U/L
serum ALB ([1]; Day 30): 32.5 ± 0.1 g/L
serum ALT ([1]; Day 30): 49.5 ± 0.6 U/L
serum AST ([1]; Day 30): 59.0 ± 1.9 U/L
Model weight ([2]; Group C: glycyrrhizin (Ganlixin solution) 12.5 mg/kg s.c. once a day, weight after modelling): 303.5 ± 39.2 g
Final weights [2, 5]: 397.1 ± 46.4 g
Liver indexes [2, 5]: 3.1 ± 0.4%
Liver weights [2, 5]: 12.43 ± 2.25 g

C[C@@H]1C[C@H]2[C@@H]3CCC4=CC(=O)C=C[C@]4(C)[C@@]3(F)[C@@H](O)C[C@]2(C)[C@@]1(O)C(=O)CO [dexamethasone]
number of mice with Szapiel grade 0 (no fibrosis) [3]: 0
number of mice with Szapiel grade I (mild) [3]: 3
number of mice with Szapiel grade II (medium) [3]: 5
number of mice with Szapiel grade III (severe) [3]: 4

CCC(=O)O[C@@H](O[P@](=O)(CCCCc1ccccc1)CC(=O)N1C[C@H](C2CCCCC2)C[C@H]1C(=O)O)C(C)C [fosinopril sodium]
Deaths [4]: 0
Number of Mice (sampled in week 7 according to mortality, 10 mice per group at start) [4]: 7
Interstitial Fibrosis grade 0, number of mice ([4]; week 7): 6
Interstitial Fibrosis grade +++, number of mice ([4]; week 7): 0
Interstitial Fibrosis grade ++, number of mice ([4]; week 7): 0
Interstitial Fibrosis grade +, number of mice ([4]; week 7): 1
Perivascular Fibrosis grade 0, number of mice ([4]; week 7): 5
Perivascular Fibrosis grade +++, number of mice ([4]; week 7): 0
Perivascular Fibrosis grade ++, number of mice ([4]; week 7): 1
Perivascular Fibrosis grade +, number of mice ([4]; week 7): 1
Vacuolization grade 0, number of mice ([4]; week 7): 6
Vacuolization grade +++, number of mice ([4]; week 7): 0
Vacuolization grade ++, number of mice ([4]; week 7): 1
Vacuolization grade +, number of mice ([4]; week 7): 0
